The source of these data is ChEMBL document CHEMBL5465560, “Selectivity Literature for EUbOPEN Chemogenomic Library” (2024).

The structures appear in SMILES notation.

Assay [1] deals with T1, Dual specificity tyrosine-phosphorylation-regulated kinase 4 (Homo sapiens) (UniProt Q9NR20).
T1 sequence (whole entry): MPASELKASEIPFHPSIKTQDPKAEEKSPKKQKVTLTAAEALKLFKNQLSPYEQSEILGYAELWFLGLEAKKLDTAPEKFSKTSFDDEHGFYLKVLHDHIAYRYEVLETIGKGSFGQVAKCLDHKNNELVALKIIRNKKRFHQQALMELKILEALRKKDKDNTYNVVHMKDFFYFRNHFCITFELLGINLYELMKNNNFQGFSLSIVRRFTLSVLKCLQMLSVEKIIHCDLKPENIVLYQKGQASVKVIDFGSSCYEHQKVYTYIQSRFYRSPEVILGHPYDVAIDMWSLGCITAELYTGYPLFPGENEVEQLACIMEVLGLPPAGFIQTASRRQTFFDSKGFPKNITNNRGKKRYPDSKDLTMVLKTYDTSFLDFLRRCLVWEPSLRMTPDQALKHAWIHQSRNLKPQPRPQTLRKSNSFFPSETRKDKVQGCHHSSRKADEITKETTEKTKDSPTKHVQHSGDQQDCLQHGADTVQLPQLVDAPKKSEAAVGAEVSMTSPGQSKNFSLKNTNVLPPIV
The experiment in a line: Selectivity interaction (ProQinase) EUB0000171b DYRK4.

For assay [2], the target named is Serine/threonine-protein kinase 24 (Homo sapiens) (UniProt Q9Y6E0). The assay is described as follows: Selectivity interaction (Ambit KINOMEscan and KiNATiv profiling in Jurkat cells) EUB0000090b STK24. The assay is classed as cell-based. The settings on record: at 1 µM.
Serine/threonine-protein kinase 24 (Homo sapiens), sequence (Q9Y6E0 whole entry, looked up): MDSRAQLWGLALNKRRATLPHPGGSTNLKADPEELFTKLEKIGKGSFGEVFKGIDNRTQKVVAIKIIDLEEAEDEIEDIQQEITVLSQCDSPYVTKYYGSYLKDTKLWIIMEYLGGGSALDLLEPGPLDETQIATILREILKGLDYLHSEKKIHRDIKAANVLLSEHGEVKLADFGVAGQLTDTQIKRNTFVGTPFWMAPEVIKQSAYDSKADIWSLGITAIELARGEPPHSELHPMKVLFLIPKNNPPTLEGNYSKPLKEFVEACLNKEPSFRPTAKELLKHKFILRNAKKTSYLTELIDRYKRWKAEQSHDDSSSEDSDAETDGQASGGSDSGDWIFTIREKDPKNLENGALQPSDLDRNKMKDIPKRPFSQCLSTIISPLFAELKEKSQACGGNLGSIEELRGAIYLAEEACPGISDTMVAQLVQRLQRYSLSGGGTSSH
Assay [3] deals with Tyrosine-protein kinase ABL1 (Homo sapiens), P00519 [T315I]. The assay is described as follows: (§1) Selectivity interaction (KinomeScan (DiscoverX)) EUB0001079a ABL1. To be noted: at 1 µM.
In assay [4] the test system is Tyrosine-protein kinase ABL1 (Homo sapiens), P00519 [M351T]. The assay is described as §1. The settings on record: at 1 µM.
Assay [5] concerns Tyrosine-protein kinase ABL1 (Homo sapiens), P00519 [F317L]. The assay is described as §1. The settings on record: at 1 µM.
Assay [6] deals with Tyrosine-protein kinase ABL1 (Homo sapiens), P00519 [Y253F]. The description is as §1. To be noted: at 1 µM.
In assay [7] the test system is Tyrosine-protein kinase ABL1 (Homo sapiens), P00519 [H396P]. The description is as §1. The settings on record: at 1 µM.
The subject of assay [8] is Tyrosine-protein kinase ABL1 (Homo sapiens), P00519 [F317I]. Described as §1. To be noted: at 1 µM.
The subject of assay [9] is Tyrosine-protein kinase ABL1 (Homo sapiens), P00519 [Q252H]. The description is as §1. To be noted: at 1 µM.
In assay [10] the test system is Tyrosine-protein kinase ABL1 (Homo sapiens), P00519 [E255K]. Described as §1. The settings on record: at 1 µM.
The target in assay [11] is Tyrosine-protein kinase ABL1 (Homo sapiens, UniProt P00519). Described as §1. The settings on record: at 1 µM.
For assay [12], the target named is Serine/threonine-protein kinase 10 (Homo sapiens) (UniProt O94804). The assay is described as follows: Selectivity interaction (ActivX KiNativ screen (kinase selectivity in THP-1 cell lysates)) EUB0000639a STK10. To be noted: lysate, at 1 µM. The assay is classed as subcellular.
Serine/threonine-protein kinase 10 (Homo sapiens), sequence (O94804 whole entry, looked up): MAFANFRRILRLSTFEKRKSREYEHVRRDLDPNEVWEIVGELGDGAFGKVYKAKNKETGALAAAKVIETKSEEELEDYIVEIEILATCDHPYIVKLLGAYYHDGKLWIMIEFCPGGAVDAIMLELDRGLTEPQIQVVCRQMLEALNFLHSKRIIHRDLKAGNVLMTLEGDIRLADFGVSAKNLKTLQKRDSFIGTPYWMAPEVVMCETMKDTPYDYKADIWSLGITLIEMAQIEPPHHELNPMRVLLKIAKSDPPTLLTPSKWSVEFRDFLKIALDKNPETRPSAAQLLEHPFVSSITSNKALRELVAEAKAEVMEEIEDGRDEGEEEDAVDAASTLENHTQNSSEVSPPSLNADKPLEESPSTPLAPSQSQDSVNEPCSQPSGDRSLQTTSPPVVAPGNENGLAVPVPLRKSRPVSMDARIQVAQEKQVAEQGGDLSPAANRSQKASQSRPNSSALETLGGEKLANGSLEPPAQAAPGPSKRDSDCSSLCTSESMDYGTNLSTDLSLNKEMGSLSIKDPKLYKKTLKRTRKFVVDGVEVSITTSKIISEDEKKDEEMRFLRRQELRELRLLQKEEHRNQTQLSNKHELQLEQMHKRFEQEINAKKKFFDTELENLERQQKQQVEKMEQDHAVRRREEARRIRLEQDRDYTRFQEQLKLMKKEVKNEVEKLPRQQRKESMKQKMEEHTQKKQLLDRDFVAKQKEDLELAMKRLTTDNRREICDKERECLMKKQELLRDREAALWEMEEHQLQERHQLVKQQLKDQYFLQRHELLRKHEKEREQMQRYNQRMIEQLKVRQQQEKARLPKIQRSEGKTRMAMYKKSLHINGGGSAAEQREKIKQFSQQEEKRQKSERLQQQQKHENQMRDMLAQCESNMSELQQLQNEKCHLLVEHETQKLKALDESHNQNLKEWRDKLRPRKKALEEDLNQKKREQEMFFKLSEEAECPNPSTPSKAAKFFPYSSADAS
Assay [13] addresses T2, Tyrosine-protein kinase Mer (Homo sapiens) (UniProt Q12866).
T2 sequence (whole entry): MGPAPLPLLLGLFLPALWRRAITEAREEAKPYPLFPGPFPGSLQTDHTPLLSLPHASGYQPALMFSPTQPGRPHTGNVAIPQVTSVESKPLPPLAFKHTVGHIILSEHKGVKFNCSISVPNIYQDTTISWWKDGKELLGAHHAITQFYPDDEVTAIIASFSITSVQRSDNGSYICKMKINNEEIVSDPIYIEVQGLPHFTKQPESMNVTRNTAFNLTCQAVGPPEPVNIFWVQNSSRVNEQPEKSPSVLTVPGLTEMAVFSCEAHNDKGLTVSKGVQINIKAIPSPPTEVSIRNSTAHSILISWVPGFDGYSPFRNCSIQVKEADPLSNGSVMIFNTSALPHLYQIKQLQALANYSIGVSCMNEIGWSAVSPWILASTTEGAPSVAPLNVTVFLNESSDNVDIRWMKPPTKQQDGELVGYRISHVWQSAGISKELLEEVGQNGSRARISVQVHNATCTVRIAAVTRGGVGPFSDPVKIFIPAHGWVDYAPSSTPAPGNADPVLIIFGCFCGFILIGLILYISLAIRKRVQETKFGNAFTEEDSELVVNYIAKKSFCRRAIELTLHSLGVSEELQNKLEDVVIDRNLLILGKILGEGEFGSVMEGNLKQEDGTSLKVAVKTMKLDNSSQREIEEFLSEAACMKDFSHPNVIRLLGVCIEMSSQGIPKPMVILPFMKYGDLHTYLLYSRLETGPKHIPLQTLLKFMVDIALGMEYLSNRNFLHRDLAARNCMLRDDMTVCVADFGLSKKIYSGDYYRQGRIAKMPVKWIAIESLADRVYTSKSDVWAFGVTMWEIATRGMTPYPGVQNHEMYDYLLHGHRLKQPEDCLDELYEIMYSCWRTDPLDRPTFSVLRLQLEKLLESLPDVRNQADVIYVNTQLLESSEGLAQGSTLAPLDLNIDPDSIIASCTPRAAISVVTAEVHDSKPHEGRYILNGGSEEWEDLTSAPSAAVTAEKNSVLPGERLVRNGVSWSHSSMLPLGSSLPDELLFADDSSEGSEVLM
The experiment in a line: Selectivity interaction (Kinase panel (Invitrogen)) EUB0000639a MERTK. The settings on record: at 200 nM.

Assay [14] concerns the target Non-receptor tyrosine-protein kinase TYK2 (Homo sapiens, UniProt P29597). The assay is described as follows: Selectivity interaction (KinomeScan (DiscoverX)) EUB0000595a TYK2. The settings on record: at 10 µM.
For assay [15], the target named is T3, Mitogen-activated protein kinase kinase kinase 7 (Homo sapiens) (UniProt O43318).
T3 sequence (whole entry): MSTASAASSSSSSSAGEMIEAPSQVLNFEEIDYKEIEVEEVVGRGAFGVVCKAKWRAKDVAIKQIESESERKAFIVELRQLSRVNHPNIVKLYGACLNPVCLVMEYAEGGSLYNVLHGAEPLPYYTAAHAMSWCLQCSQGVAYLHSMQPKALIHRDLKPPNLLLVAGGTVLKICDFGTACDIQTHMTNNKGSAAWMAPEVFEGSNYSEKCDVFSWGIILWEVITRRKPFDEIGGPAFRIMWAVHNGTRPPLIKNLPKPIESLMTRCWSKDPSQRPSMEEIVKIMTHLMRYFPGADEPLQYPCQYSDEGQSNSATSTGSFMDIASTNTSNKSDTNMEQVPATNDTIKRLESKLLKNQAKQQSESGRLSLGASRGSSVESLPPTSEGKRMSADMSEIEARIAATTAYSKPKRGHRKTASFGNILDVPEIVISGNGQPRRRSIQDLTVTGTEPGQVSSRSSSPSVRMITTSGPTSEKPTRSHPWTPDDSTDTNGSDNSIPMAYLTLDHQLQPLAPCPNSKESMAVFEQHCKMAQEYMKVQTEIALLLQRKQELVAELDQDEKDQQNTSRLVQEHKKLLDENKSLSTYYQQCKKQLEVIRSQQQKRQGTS
The assay is described as follows: Selectivity interaction (Kinase panel (KiNativ target engagement assay in Jurkat cells)) EUB0001635a MAP3K7. It counts as cell-based. To be noted: Selectivity number of off-targets 0.0, Selectivity number of targets 233.0, Source Knowledge https://www.sciencedirect.com/science/article/pii/S2451945619300674?via%3Dihub, at 1 µM.

Non-receptor tyrosine-protein kinase TYK2, sequence (P29597 whole entry): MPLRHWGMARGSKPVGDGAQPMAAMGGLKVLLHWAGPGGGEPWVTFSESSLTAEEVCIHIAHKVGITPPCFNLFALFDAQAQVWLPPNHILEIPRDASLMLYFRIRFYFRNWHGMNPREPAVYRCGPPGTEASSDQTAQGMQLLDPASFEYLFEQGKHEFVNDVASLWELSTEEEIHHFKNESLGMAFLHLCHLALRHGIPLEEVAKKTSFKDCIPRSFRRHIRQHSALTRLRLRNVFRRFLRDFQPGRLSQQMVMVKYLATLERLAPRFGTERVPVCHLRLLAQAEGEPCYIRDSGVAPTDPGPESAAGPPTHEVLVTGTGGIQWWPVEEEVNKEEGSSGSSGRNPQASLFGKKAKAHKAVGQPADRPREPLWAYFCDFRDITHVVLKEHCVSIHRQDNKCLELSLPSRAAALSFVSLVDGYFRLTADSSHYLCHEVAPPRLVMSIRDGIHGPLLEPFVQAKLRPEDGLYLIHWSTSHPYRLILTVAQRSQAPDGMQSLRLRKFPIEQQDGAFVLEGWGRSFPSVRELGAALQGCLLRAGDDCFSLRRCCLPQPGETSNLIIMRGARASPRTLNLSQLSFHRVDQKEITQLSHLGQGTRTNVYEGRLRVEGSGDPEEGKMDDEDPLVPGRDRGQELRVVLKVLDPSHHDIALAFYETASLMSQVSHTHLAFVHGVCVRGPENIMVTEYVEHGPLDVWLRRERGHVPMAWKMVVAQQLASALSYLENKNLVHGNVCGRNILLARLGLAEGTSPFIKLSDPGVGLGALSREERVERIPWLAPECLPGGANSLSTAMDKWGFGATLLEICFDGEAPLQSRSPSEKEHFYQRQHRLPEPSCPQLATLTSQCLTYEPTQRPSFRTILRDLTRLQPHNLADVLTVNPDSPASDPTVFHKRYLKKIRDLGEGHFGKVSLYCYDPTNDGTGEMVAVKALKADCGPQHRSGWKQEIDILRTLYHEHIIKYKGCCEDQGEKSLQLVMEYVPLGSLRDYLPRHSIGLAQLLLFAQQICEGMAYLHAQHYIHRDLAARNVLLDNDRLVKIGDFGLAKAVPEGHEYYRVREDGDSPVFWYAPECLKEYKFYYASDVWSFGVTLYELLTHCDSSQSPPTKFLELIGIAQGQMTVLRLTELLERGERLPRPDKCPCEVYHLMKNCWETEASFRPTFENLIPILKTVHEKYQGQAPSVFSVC

Take `C=CC(=O)Nc1cccc(C(=O)Nc2ccc(Nc3cc(-c4[nH]c(SC)nc4C)ccn3)cc2)c1`: the % of control turned out to be 90% in assay [1] (at 1 µM) and 84% in assay [1] (at 5 µM).
Consider `CN(C)C/C=C/C(=O)Nc1ccc(C(=O)N2CCCC(Nc3ncc(Cl)c(-c4c[nH]c5ccccc45)n3)C2)cc1` (stereo unspecified), for which the % of control in [2] was 94%.
On to `Nc1cnc(N2CCc3cc(S(=O)(=O)Nc4c(F)cc(Cl)cc4F)cc(N4CCCC4=O)c32)nc1` [TP-020n], for which the % of control came out at 100% in assay [3]; 100% in assay [4]; 99% in [5]; 94% in assay [6]; 94% in assay [7]; 100% in [8]. For the same compound, the % of control in [9] turned out to be 100%; in assay [10] it was 85%; in [11] it was 100%.
As to `CC[C@@H]1[C@H](F)C(=O)N[C@@H]1COc1nccc2cc(C(N)=O)c(OC)cc12` [ZIMLOVISERTIB], the % of inhibition in [12] was -15.7%; in assay [13], 3.13%.
Compound `COCC(=O)NC/C=C/c1ccc2ncnc(Nc3ccc(Oc4ccc(C)nc4)c(C)c3)c2c1` [CP-724714] had a % of control in assay [14] of 100%.
As to `C=CC(=O)Nc1ccc(C(=O)Nc2[nH]nc3c2CN(C(=O)N[C@H](CN(C)C)c2ccccc2)C3(C)C)cc1`, the % of engagement in [15] was -4.8%.
